# Assay results: PubChem BioAssay AID2060910 (Molecular Pharmacology Branch, DTP, NCI, 2025)
# Test system: 242566-281-R-J2-PDC complex spheroid viability
# Assay: Anticancer human tumor 242566-281-R-J2-PDC patient-derived pancreatic carcinoma cell line growth inhibition [RAS]
# Conditions: for IC50: curve of first compound; for viability, T/C: stronger effect = lower value
# From the text: RAS pathway inhibitors in Combinations in Complex Spheroids
# A high-throughput screen of multi-cell type tumor spheroids was designed to identify active combinations of RAS pathway inhibitors and targeted small molecules. Complex spheroids include a stromal component modeled by human endothelial cells (HUVEC) and fibroblasts modeled by human mesenchymal stem cells (MSCs). The concentration ranges selected for each drug and investigational agent were based upon clinically achievable concentrations if the clinical Cmax of the agent was known.
# Compounds. The drugs and investigational agents: abemaciclib (NSC768073), cobimetinib (NSC768068), divarasib (GDC6063, NSC841802), docetaxel (NSC628503), GDC-1971 (RLY-1971, NSC841576), gemcitabine (NSC613327), inavolisib (NSC800729), ipatasertib (NSC767898), KB-0742 (NSC834161), MRTX-1133 (NSC836407), osimertinib (NSC779217), RMC-4630 (NSC839698), RMC-6236 (NSC851965), RMC-6291 (NSC852671), Ro-3306 (NSC812927), sapanisertib (NSC764658), SN-38 (NSC673596), staurosporine (NSC755774), SY5609 (NSC837396), and tovorafenib (DAY101, NSC766906), were obtained from the National Cancer Institute (NCI) Developmental Therapeutics Program Chemical Repository. The FDA-approved anticancer drug set is available from the NCI Developmental Therapeutics Program. […] The stock solutions were prepared in dimethyl sulfoxide (DMSO, Sigma-Aldrich, St. Louis, MO, cat. D2650) at 800-fold the tested concentration and stored at -70 degrees C prior to their use. All drugs and investigational agents were tested over a range starting from a high concentration at or near the clinical Cmax and decreasing in half-log increments. If the clinical Cmax for an agent had not been determined, the highest concentration tested was 10 microM.
# Cell Culture. All cells were maintained in an incubator at 37 degrees C and 5% CO2 with 95% humidity. The PDC lines were cultured according to standard operating procedures established by the NCI PDMR. All PDCs were thawed and cultured in Matrigel-coated flasks prepared with a working solution of 1X Ham's F-12 nutrient mix, without supplementation (Invitrogen, Waltham, MA, cat. 11765054), 100 U/mL penicillin-streptomycin (Invitrogen, cat. 15140122), and 2.5% Matrigel (Corning Inc., Corning, NY, cat. 354248) for the first three passages. The 362531-283-R-J2-PDC and 782815-120-R-J1-PDC lines were cultured in 6C/Colon 1B media, which includes advanced DMEM/F-12 (Thermo Fisher Scientific, cat. 12634028), 10 mM HEPES (Thermo Fisher Scientific, cat. 15630080), 1X GlutaMAX supplement (Thermo Fisher Scientific, cat. 35050061), 0.1 mg/mL primocin (InvivoGen, San Diego, CA, cat. ant-pm-2), 10% defined fetal bovine serum, heat inactivated (HyClone Laboratories Inc., Logan, UT, cat. SH30070.03HI), 50% L-WRN conditioned media (ATCC, cat. CRL-3276), 1.25 mM N-Acetyl-L-cysteine (Sigma-Aldrich, cat. A9165), 10 mM nicotinamide (Sigma-Aldrich, cat. N0636), 1X B-27 supplement (Thermo Fisher Scientific, cat. 17504044), 1X N-2 supplement (Thermo Fisher Scientific, cat. 17502048), 50 ng/mL human EGF (Thermo Fisher Scientific, cat. PHG0311), and 10 microM Y-27632 dihydrochloride (Tocris Bioscience, cat. 1254). The K12877-001-R-J1-PDC line was cultured in 6I media, which includes all 6C/Colon 1B media plus 10 ng/mL human FGF-10 (PeproTech, cat. 100-26), 1 ng/mL human FGF-2 (PeproTech, cat. 100-18B), 1 µM prostaglandin E2 (Tocris Bioscience, cat. 2296), […] hydrocortisone (Sigma-Aldrich, cat. H4001), and […] bovine insulin (Sigma-Aldrich, cat. I6634). The K86415-001-R-J1-PDC line was cultured in 6D media, which includes all 6C/Colon 1B media components minus the L-WRN conditioned media. The 485176-168-R4-J1-PDC was cultured in PANC media, which includes all 6C/Colon 1B media plus 100 ng/mL human FGF-10 (PeproTech, cat. 100-26), 500 nM SB-431542 (Selleckchem, cat. S1067), and 10 nM gastrin (Tocris Bioscience, cat. 3006). […]
# 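Also: spheroids exposed to compound for 7 days before readout.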
# 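For viability, T/C in this document: 100% = DMSO vehicle control wells.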
compound,measurement,setting,value
CC1(O)CCCC1n1c(=O)c(C(F)F)cc2cnc(NC3CCN(S(C)(=O)=O)CC3)nc21 (centres undefined) + C=CC(=O)N1CCN(c2nc(OCC3CCCN3C)nc3c(F)c(-c4nc(N)cc(C)c4C(F)(F)F)c(Cl)cc23)C(C)C1,IC50,second compound 0.00316 µM,> 10000 nM
same,IC50,second compound 0.01 µM,> 10000 nM
same,IC50,second compound 0.0316 µM,> 10000 nM
same,IC50,second compound 0.1 µM,> 10000 nM
same,IC50,second compound 0.316 µM,> 10000 nM
same,IC50,second compound 1 µM,9010 nM
same,"viability, T/C","second compound 0.00316 µM, first compound 0.0316 µM",86.6%
same,"viability, T/C","second compound 0.00316 µM, first compound 0.1 µM",108%
same,"viability, T/C","second compound 0.00316 µM, first compound 0.316 µM",83.9%
same,"viability, T/C","second compound 0.00316 µM, first compound 1 µM",108%
same,"viability, T/C","second compound 0.00316 µM, first compound 3.16 µM",112%
same,"viability, T/C","second compound 0.00316 µM, first compound 10 µM",72.7%
same,"viability, T/C","second compound 0.01 µM, first compound 0.0316 µM",99%
same,"viability, T/C","second compound 0.01 µM, first compound 0.1 µM",113%
same,"viability, T/C","second compound 0.01 µM, first compound 0.316 µM",106%
same,"viability, T/C","second compound 0.01 µM, first compound 1 µM",99.5%
same,"viability, T/C","second compound 0.01 µM, first compound 3.16 µM",123%
same,"viability, T/C","second compound 0.01 µM, first compound 10 µM",68.9%
same,"viability, T/C","second compound 0.0316 µM, first compound 0.0316 µM",94.7%
same,"viability, T/C","second compound 0.0316 µM, first compound 0.1 µM",106%
same,"viability, T/C","second compound 0.0316 µM, first compound 0.316 µM",108%
same,"viability, T/C","second compound 0.0316 µM, first compound 1 µM",132%
same,"viability, T/C","second compound 0.0316 µM, first compound 3.16 µM",115%
same,"viability, T/C","second compound 0.0316 µM, first compound 10 µM",66.6%
same,"viability, T/C","second compound 0.1 µM, first compound 0.0316 µM",96.3%
same,"viability, T/C","second compound 0.1 µM, first compound 0.1 µM",104%
same,"viability, T/C","second compound 0.1 µM, first compound 0.316 µM",97.9%
same,"viability, T/C","second compound 0.1 µM, first compound 1 µM",106%
same,"viability, T/C","second compound 0.1 µM, first compound 3.16 µM",112%
same,"viability, T/C","second compound 0.1 µM, first compound 10 µM",68.2%
same,"viability, T/C","second compound 0.316 µM, first compound 0.0316 µM",96.5%
same,"viability, T/C","second compound 0.316 µM, first compound 0.1 µM",108%
same,"viability, T/C","second compound 0.316 µM, first compound 0.316 µM",89.5%
same,"viability, T/C","second compound 0.316 µM, first compound 1 µM",116%
same,"viability, T/C","second compound 0.316 µM, first compound 3.16 µM",139%
same,"viability, T/C","second compound 0.316 µM, first compound 10 µM",64.5%
same,"viability, T/C","second compound 1 µM, first compound 0.0316 µM",92.1%
same,"viability, T/C","second compound 1 µM, first compound 0.1 µM",126%
same,"viability, T/C","second compound 1 µM, first compound 0.316 µM",110%
same,"viability, T/C","second compound 1 µM, first compound 1 µM",98.1%
same,"viability, T/C","second compound 1 µM, first compound 3.16 µM",112%
same,"viability, T/C","second compound 1 µM, first compound 10 µM",44.2%
CC(C)n1nc(-c2ccc3oc(N)nc3c2)c2c(N)ncnc21 + CCn1c(-c2cccnc2C(C)OC)c2c3cc(ccc31)N1CCOC(CC(NC(=O)C(C(C)C)N(C)C(=O)C3(F)CCN(C(=O)C#CC(C)(C)N(C)C)CC3)C(=O)N3CCCC(N3)C(=O)OCC(C)(C)C2)C1,IC50,second compound 0.000949 µM,43.5 nM
same,IC50,second compound 0.003 µM,44.8 nM
same,IC50,second compound 0.00949 µM,25.2 nM
same,IC50,second compound 0.03 µM,27.3 nM
same,IC50,second compound 0.0949 µM,20.4 nM
same,IC50,second compound 0.3 µM,18.4 nM
same,"viability, T/C","second compound 0.000949 µM, first compound 0.000316 µM",120%
same,"viability, T/C","second compound 0.000949 µM, first compound 0.001 µM",86.6%
same,"viability, T/C","second compound 0.000949 µM, first compound 0.00316 µM",81.6%
same,"viability, T/C","second compound 0.000949 µM, first compound 0.01 µM",79.8%
same,"viability, T/C","second compound 0.000949 µM, first compound 0.0316 µM",62.2%
same,"viability, T/C","second compound 0.000949 µM, first compound 0.1 µM",30.4%
same,"viability, T/C","second compound 0.003 µM, first compound 0.000316 µM",95.6%
same,"viability, T/C","second compound 0.003 µM, first compound 0.001 µM",80.3%
same,"viability, T/C","second compound 0.003 µM, first compound 0.00316 µM",76.2%
same,"viability, T/C","second compound 0.003 µM, first compound 0.01 µM",73%
same,"viability, T/C","second compound 0.003 µM, first compound 0.0316 µM",61.6%
same,"viability, T/C","second compound 0.003 µM, first compound 0.1 µM",30.9%
same,"viability, T/C","second compound 0.00949 µM, first compound 0.000316 µM",102%
same,"viability, T/C","second compound 0.00949 µM, first compound 0.001 µM",77.9%
same,"viability, T/C","second compound 0.00949 µM, first compound 0.00316 µM",87.7%
same,"viability, T/C","second compound 0.00949 µM, first compound 0.01 µM",75%
same,"viability, T/C","second compound 0.00949 µM, first compound 0.0316 µM",43.4%
same,"viability, T/C","second compound 0.00949 µM, first compound 0.1 µM",33.9%
same,"viability, T/C","second compound 0.03 µM, first compound 0.000316 µM",89.5%
same,"viability, T/C","second compound 0.03 µM, first compound 0.001 µM",87.6%
same,"viability, T/C","second compound 0.03 µM, first compound 0.00316 µM",92.4%
same,"viability, T/C","second compound 0.03 µM, first compound 0.01 µM",72.7%
same,"viability, T/C","second compound 0.03 µM, first compound 0.0316 µM",47.6%
same,"viability, T/C","second compound 0.03 µM, first compound 0.1 µM",37.9%
same,"viability, T/C","second compound 0.0949 µM, first compound 0.000316 µM",76.1%
same,"viability, T/C","second compound 0.0949 µM, first compound 0.001 µM",78.8%
same,"viability, T/C","second compound 0.0949 µM, first compound 0.00316 µM",83.5%
same,"viability, T/C","second compound 0.0949 µM, first compound 0.01 µM",67.2%
same,"viability, T/C","second compound 0.0949 µM, first compound 0.0316 µM",39.5%
same,"viability, T/C","second compound 0.0949 µM, first compound 0.1 µM",31.9%
same,"viability, T/C","second compound 0.3 µM, first compound 0.000316 µM",88%
same,"viability, T/C","second compound 0.3 µM, first compound 0.001 µM",82%
same,"viability, T/C","second compound 0.3 µM, first compound 0.00316 µM",70.5%
same,"viability, T/C","second compound 0.3 µM, first compound 0.01 µM",58.8%
same,"viability, T/C","second compound 0.3 µM, first compound 0.0316 µM",42.4%
same,"viability, T/C","second compound 0.3 µM, first compound 0.1 µM",30%
